Data set [1] in a line: Clinical pharmacokinetic study, plasma and urine, noncompartmental analysis. To be noted: for tmax: median [range].
The conditions of data set [2]: Baseline: oral midazolam 2.5 mg alone; median [range]; ref Nguyen et al., 2021; cited from earlier work.
Data set [3] relates to CYP3A. To be noted: cited from earlier work.
Data set [4] has as its system CYP3A. As to the kind of experiment: IC50 shift experiment, midazolam 1’-hydroxylation in human intestinal microsomes.
The next data set is described as follows: clinical. Conditions: both, human, in vivo, AUC0–12.5h, Observed.
Data set [5] in a line: Dissolution of goldenseal capsules in FaSSIF. Type of data set: physicochemical. Conditions: two goldenseal capsules in 250 ml FaSSIF, within 20 minutes.
The conditions of data set [6]: both, human, in vivo.
Data set [7] deals with CYP3A. The data set can be described thus: Allosterism of midazolam hydroxylation in HIMs by berberine. Conditions: for effect on 1’-hydroxymidazolam formation: reversible design.
The nature of data set [8]: Time-dependent inhibition of midazolam 1’-hydroxylation in HIMs. To be noted: microsomal incubation mixture, 37 °C, aqueous buffer, kinetic from dmso stock.
Data set [9] has as its system CYP3A. Described as above. To be noted: HIMs.
Data set [10] can be described thus: Apparent permeability, apical to basolateral, Caco-2 cell monolayers. Type of data set: in vitro ADME. Conditions: human.
Data set [11] has as its system CYP3A. To be noted: HLMs, 2020, cited from earlier work.
[12] abbreviates: Baseline: oral midazolam 2.5 mg alone, geometric mean [90% CI].
Setting [13] is: 6-hour blood collection, ref Gurley et al., 2008.

We go through 4 molecules from article PMC10658920 (The Journal of Pharmacology and Experimental Therapeutics, 2023).

Where “and” joins values, the source holds several entries; their conditions need not be identical. Identical values can stand only once. Entries after “also recorded” stand apart in the source; their conditions may differ. Like-named read-outs stand apart in the source and are kept apart here.

Regarding `OCc1ncc2n1-c1ccc(Cl)cc1C(c1ccccc1F)=NC2` [1’-Hydroxymidazolam, 1’-hydroxymidazolam], in data set [1] (setting [12]), the “AUC0–12h” value is 29.0 [24.4–34.4] nM*h, the AUCinf is 33.1 [27.9–39.0] nM*h, the CLR is 0.17 [0.14–0.20] n = 15 l/h and the Cmax stood at 12.3 nM. In addition, in data set [1] (setting [12]), the “MP ratio (metabolite AUC0–12h to midazolam AUC0–12h)” value was 0.47 [0.40–0.54] and the t1/2 was 6.25 [5.27–7.40] h. In addition, in data set [1] (Baseline: oral midazolam 2.5 mg alone), the tmax is 0.67 [0.33–1.00] h. Besides, the tmax in data set [1] (Chronic exposure: goldenseal 1 g thrice daily for 6 days, midazolam 2.5 mg oral) was 0.67 [0.33–1.50] h.
With `Cc1ncc2n1-c1ccc(Cl)cc1C(c1ccccc1F)=NC2O` (centres unmarked) [4-Hydroxymidazolam, 4-hydroxymidazolam], the CLR entry in [1] (setting [12]) is given as “Concentrations of metabolites in urine were below the detectable limit”. In addition, the “MP ratio (metabolite AUC0–12h to midazolam AUC0–12h)” value in [1] (setting [12]) was 0.045 [0.039–0.051]. For the same molecule, in data set [1] (both, human, plasma, po, 2.5 mg, AUC0–12h, Baseline: oral midazolam 2.5 mg alone, geometric mean [90% CI]), the AUC(0-t) was 2.78 nM·h. For the same molecule, the half-life in [1] (both, human, plasma, po, 2.5 mg, t1/2, Baseline: oral midazolam 2.5 mg alone, geometric mean [90% CI]) was 1.68 h. Besides, the tmax is 1 h in [1] (both, human, plasma, po, 2.5 mg, tmax, Baseline: oral midazolam 2.5 mg alone) and 1 h in [1] (both, human, plasma, po, tmax, Chronic exposure: goldenseal 1 g thrice daily for 6 days, midazolam 2.5 mg oral).
For `Cc1ncc2n1-c1ccc(Cl)cc1C(c1ccccc1F)=NC2` [Midazolam], the tmax in data set [2] was 0.67 [0.33–1.00] h. The CL renal in data set [1] (both, human, plasma and urine, po) is 1.08 mL/min. Besides, in the data set with CYP3A [3] (setting [13]), the “midazolam half-life at baseline” value is 2.0 h and the “midazolam half-life in the presence of goldenseal” value is 3.1 h.
For `COc1ccc2cc3[n+](cc2c1OC)CCc1cc2c(cc1-3)OCO2` [berberine], the “leftward shift in IC50 after preincubation with NADPH” value in the data set with CYP3A [4] (HIMs) is on record as “not observed”. The “IC50, midazolam 1’-hydroxylation” value with CYP3A [4] (HIMs 0.05 mg/ml, 30 min preincubation in absence of NADPH, 4 μM midazolam) is recorded as “apparent activation; also recorded: unattainable”. The AUC(0-t) in “clinical” worked out at 4.58 nM·h. The total content dissolved result in data set [5] is reported as “More than 80%”. In addition, the “AUC0–12.5h, Observed” value in data set [6] is 7.81 [6.17–9.89] nM*h. In addition, in data set [1] (both, human, plasma, oral), the total exposure AUC(0-inf) turned out to be 46.7 nM·h. Besides, in the data set on CYP3A [3] (berberine 300 mg thrice daily × 14 days, ref Guo et al., 2012), the “increase in midazolam AUC” value is given as 40%. In addition, the “effect on midazolam 4-hydroxylation” value with CYP3A [7] (berberine 5–100 μM) is reported as “inhibited”. Moreover, in the data set with CYP3A [7] (particularly at midazolam ≤5 μM), the “effect on 1’-hydroxymidazolam/4-hydroxymidazolam ratio” value was “concentration-dependent increase”. For the same molecule, in the data set on CYP3A [7] (midazolam ≤5 μM), the “effect on 1’-hydroxymidazolam formation” value is on record as “activated”. For the same molecule, the “effect on 1’-hydroxymidazolam formation” value in the data set on CYP3A [7] (midazolam ≥50 μM) is reported as “inhibited”. In data set [8], the solubility was not above 500 µM. In the data set with CYP3A [9], the “inhibition of midazolam 1’-hydroxylation (in words)” value was “concentration-dependent and time-dependent inhibition”; the kinact/KI is 4.07 M⁻¹ s⁻¹ and ~4 M⁻¹ s⁻¹. Moreover, at CYP3A [9] (time-dependent inhibition of midazolam 1’-hydroxylation), the KI was > 250 µM and 250 µM. Besides, the kinact in the data set with CYP3A [9] (human, human intestinal microsomes, probe midazolam (40 μM), 1'-hydroxylation, kinact, time-dependent inhibition of midazolam 1’-hydroxylation) was approximately 0.001 s⁻¹. For the same molecule, the Papp at 10 μM in data set [10] stood at 0.18 ×10⁻⁶ cm/s. In addition, the “TDI of CYP3A activity (midazolam 1’-hydroxylation), in words” value with CYP3A [11] (ref Chatterjee and Franklin, 2003, McDonald et al.) is recorded as “demonstrated TDI”. Moreover, in the data set on CYP3A [11] (ref McDonald et al.), the “IC50 (reversible inhibition)” value was “unattainable” and the kinact/KI was 21.7 M⁻¹ s⁻¹.

As usually defined, the Cmax is the highest concentration seen after dosing. In general, AUC(0-t) refers to the area under the concentration-time curve up to a stated or last time point. The low end stands for low exposure, the high end for high exposure. As usually defined, the half-life is the time needed for the level to fall by half in the phase considered. Lower therefore signals fast loss. In general, AUC(0-inf) refers to the area under the concentration-time curve extrapolated to infinity. What is called solubility is how much of the substance goes into solution per volume. The term kinact/KI denotes the second-order rate constant of inactivation. What is called kinact is the rate constant of inactivation at saturating inhibitor. As usually defined, the Papp is a coefficient for how fast a substance crosses the barrier.
